Laboratory results published in PMC4436593, “Endoplasmic reticulum stress-independent activation of unfolded protein response kinases by a small molecule ATP-mimic” (eLife, 2015).

Experiments:
[1] = molecular target: T1, PERK (535–1093 Δ660–868) (Homo sapiens, UniProt Q9NZJ5, DEL660-868); test: In vitro PERK activation assay (rate of eIF2α phosphorylation by dephosphorylated tag-free PERK cytosolic domain); type: biochemical
T1 construct: GST (N, cleaved yes); made in house; host or cells: E. coli BL21 star (DE3), co-expressed with lambda phosphatase
T1 sequence (Q9NZJ5 with tags, fused parts or gaps DEL660-868): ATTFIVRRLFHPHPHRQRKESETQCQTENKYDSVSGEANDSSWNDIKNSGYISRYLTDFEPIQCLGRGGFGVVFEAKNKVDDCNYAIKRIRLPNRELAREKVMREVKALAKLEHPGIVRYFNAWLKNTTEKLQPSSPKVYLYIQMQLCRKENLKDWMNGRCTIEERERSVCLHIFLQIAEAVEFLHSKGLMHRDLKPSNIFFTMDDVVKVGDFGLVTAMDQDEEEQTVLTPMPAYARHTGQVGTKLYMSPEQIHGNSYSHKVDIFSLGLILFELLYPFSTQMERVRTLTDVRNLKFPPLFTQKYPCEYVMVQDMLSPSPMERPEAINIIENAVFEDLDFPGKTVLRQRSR
Description: To address directly whether PERK activation resulted from IPA binding to PERK itself, we recombinantly expressed the cytosolic portion of human PERK and eIF2α, the only known PERK substrate, and reconstituted the phosphorylation reaction in vitro. To this end, the cytosolic portion of PERK was dephosphorylated and then proteolytically severed and chromatographically separated from its glutathione S-transferase tag, known to promote-constitutive multimerization. The resulting PERK cytosolic fragment was responsive to activation, by contrast to the constitutively active, phosphorylated PERK-GST fusion protein assayed in Figure 4—figure supplement 1.
Full-length cytosolic human PERK was codon-optimized for E. coli expression by Genewiz Inc. A construct was then cloned into a Pgex-6p-2 vector for expression using two rounds of In-Fusion cloning (Clontech) (535–1093 Δ660–868). The cytosolic portion of PERK, lacking the unstructured loop region (amino acids 535–1093 Δ660–868) was then co-expressed with a tagless lambda phosphatase to produce a fully dephosphorylated PERK protein in BL21 star (DE3) (Life Technologies) ([Dar et al., 2008]). Cells were grown to an OD600 of 0.5 before induction with 0.1 mM IPTG at 15°C for 25 hr. Cells were harvested and lysed using AVESTIN Emulsiflex-C3 in a buffer containing 50 mM Tris-HCl, pH 8.0, 500 mM NaCl, 10% glycerol, 5 mM TCEP (buffer A), and EDTA-free COMPlete protease inhibitor cocktail (Roche). Lysate was cleared by centrifugation at 100,000×g before batch binding to a GST-Sepharose resin. The resin was washed 5× times with buffer A, and on-column tag cleavage was preformed using PreScission protease (GE Healthcare). The protein was loaded onto a HiTrap Q HP column to remove remaining protease. The PERK (535–1093 Δ660–868) protein was then concentrated and fractionated on a Superdex 200 GL (GE Healthcare) to remove uncleaved GST-PERK protein.
PERK activation was measured using PERK (535–1093 Δ660–868) in a buffer containing 20 mM Tris-HCl, 150 mM NaCl, 4 mM MgCl2, 5 mM TCEP, 1% glycerol, pH 8.0. PERK concentration was 1 μM, and activity was measured at 30°C. PERK was pre-incubated with 50 μM of cold ATP in the presence or absence of IPA or IPAx. The reaction was then initiated by adding S. cerevisiae eIF2α (1–180) and 0.2 mCi γ-[^32P]-ATP. The reaction was monitored over a time course of 30 min, during which 1/6 of the reaction volume was removed at 0.5, 1, 5, 10, 20, and 30 min and stopped in Laemmli buffer supplemented with 50 mM EDTA. […] Gels were quantified using ImageQuant software and data were processed using SigmaPlot software package. Rates were determined using non-linear regression. Experiments were performed 3 times, and mean errors were determined.

[2] = test system: XBP1 mRNA splicing in HEK293T cells; test: XBP1 mRNA splicing by RT-PCR in HEK293T cells; type: cell-based, human; settings: for XBP1 mRNA splicing (in words): IPAx 2 µM, 4 hr
Description: To examine the effects of IPA in living cells, we monitored the UPR in HEK293T cells using RT-PCR to measure splicing of XBP1 mRNA. […] At a concentration of 2 μM IPA, splicing was induced within 2 hr (lane 5). […] We used tunicamycin (Tm), which induces ER stress by blocking N-linked glycosylation, as a positive control to induce the UPR (Figure 2A, lanes 7, and Figure 2B, lane 4).
Cells were lysed and total RNA was collected (Total RNA Kit 1, EZ-RNA, EZNA [USA]). PolyA^+ mRNA was reverse transcribed with M-MLV (Invitrogen), and the resulting cDNA was used as a template for PCR amplification across the fragment of XBP1 cDNA containing the intron. Primers used to amplify human XBP1: 5′-[…]-3′ and 5′-[…]-3′. To amplify murine XBP1: 5′-[…]-3′ and 5′-[…]-3′. PCR conditions were as follows: 95°C for 5 min, 95°C for 1 min, 58°C for 30 s, 72°C for 30 s, and 72°C for 5 min, with 20 cycles of amplification. PCR products were resolved on a 2.5% agarose tris-acetate EDTA (TAE) gel. As previously reported, a hybrid amplicon species consisting of unspliced Xbp-1 annealed to spliced Xbp-1 can also be produced through this PCR reaction and was visible as a slower migrating band above the unspliced amplicon. The same cDNA was used as template for PCR of DERLIN-3 and HERPUD1, both ATF6 targets, and GAPDH, which was used as loading control. Primers used included the following: DERLIN-3, 5′-[…]-3′ and 5′-[…]-3′; HERPUD1-1, 5′-[…]-3′ and 5′-[…]-3′; GAPDH, 5′-[…]-3′ and 5′-[…]-3′. PCR conditions were: 95°C × 5 min, 95°C × 1 min, 56°C × 30 s, 72°C for 30 s for 25 cycles, 72°C for 5 min at 4°C. PCR products were resolved on a 2% agarose TAE gel.

Row | SMILES | fold change in rate of eIF2α phosphorylation by PERK (maximal activation) ([1]; 0.5 μM (500 nM) IPA, normalized to DMSO control, PERK 1 μM) [fold] | fold change in rate of eIF2α phosphorylation by PERK (inhibitory concentration) ([1]; 3 μM IPA, normalized to DMSO control) [fold] | time until XBP1 mRNA splicing was induced ([2]; 2 μM IPA) [h] | XBP1 mRNA splicing (in words) [2] | effect on the rate of PERK activity ([1]; IPAx 20 μM) | PERK activation in vitro ([1]; IPAx 0.3 and 0.5 μM, normalized to DMSO control)
1 | CSc1ccc(NC(=O)Nc2ccc(Nc3nccc(Nc4cc(C5CC5)[nH]n4)n3)cc2)cc1 [IPA] | 3.3 | 0.31 | ≤ 2 | induced XBP1 mRNA splicing in a time- and dose-dependent manner |  | 
2 | CSc1ccc(NC(=O)Nc2ccc(Nc3nccc(Nc4cc(C5CC5)n(C)n4)n3)cc2)cc1 [IPAx] |  |  |  | did not induce XBP1 mRNA splicing | showed no effect | No activation was observed
